These compounds were tested on recombinant NL-Rluc virus (assay: Inhibition of HIV replication (NL-RLuc luciferase reporter virus, MT-2 cells)). Settings: Human immunodeficiency virus 1, MT2, 120 h, read-out: Activity.
Format: cell-based
`Cc1nc2cc(C(=O)N[C@H]3C[C@@H]3c3ccccc3)nn2c(-c2cc(F)c3c(c2C)CCCO3)c1[C@H](OC(C)(C)C)C(=O)O` [Example 56, (2S)-2-(tert-butoxy)-2-(7-(8-fluoro-5-methylchroman-6-yl)-5-methyl-2-(((1S,2R)-2-phenylcyclopropyl)carbamoyl)pyrazolo[1,5-a]pyrimidin-6-yl)acetic acid] was tested, and the EC50 was < 0.1 µM.
For `Cc1nc2cc(C(=O)N3CCc4ccccc4C3)nn2c(-c2cc(F)c3c(c2C)CCCO3)c1[C@H](OC(C)(C)C)C(=O)O` [Example 79, (2S)-2-(tert-butoxy)-2-(7-(8-fluoro-5-methylchroman-6-yl)-5-methyl-2-(1,2,3,4-tetrahydroisoquinoline-2-carbonyl)pyrazolo[1,5-a]pyrimidin-6-yl)acetic acid], the EC50 was < 0.1 µM.
For `CCc1ccc(CN(C)C(=O)c2cc3nc(C)c([C@H](OC(C)(C)C)C(=O)O)c(-c4cc(F)c5c(c4C)CCCO5)n3n2)cc1` [Example 21, (2S)-2-(tert-butoxy)-2-(2-((4-ethylbenzyl)(methyl)carbamoyl)-7-(8-fluoro-5-methylchroman-6-yl)-5-methylpyrazolo[1,5-a]pyrimidin-6-yl)acetic acid], the EC50 was < 0.1 µM.
For `Cc1nc2cc(C(=O)NCC3CCN(C(=O)OC(C)(C)C)CC3)nn2c(-c2cc(F)c3c(c2C)CCCO3)c1[C@H](OC(C)(C)C)C(=O)O` [Example 59, (2S)-2-(tert-butoxy)-2-(2-(((1-(tert-butoxycarbonyl)piperidin-4-yl)methyl)carbamoyl)-7-(8-fluoro-5-methylchroman-6-yl)-5-methylpyrazolo[1,5-a]pyrimidin-6-yl)acetic acid], the EC50 was 0.1 to 1 µM.
For `Cc1nc2cc(C(=O)Nc3ccc(C4CCCCC4)cc3)nn2c(-c2cc(F)c3c(c2C)CCCO3)c1[C@H](OC(C)(C)C)C(=O)O` [Example 73, (2S)-2-(tert-butoxy)-2-(2-((4-cyclohexylphenyl)carbamoyl)-7-(8-fluoro-5-methylchroman-6-yl)-5-methylpyrazolo[1,5-a]pyrimidin-6-yl)acetic acid], the EC50 was < 0.1 µM.
`Cc1nc2cc(C(=O)NCCc3cccc(Cl)c3)nn2c(-c2cc(F)c3c(c2C)CCCO3)c1[C@H](OC(C)(C)C)C(=O)O` [Example 81, (2S)-2-(tert-butoxy)-2-(2-((3-chlorophenethyl)carbamoyl)-7-(8-fluoro-5-methylchroman-6-yl)-5-methylpyrazolo[1,5-a]pyrimidin-6-yl)acetic acid] was tested, and the EC50 was < 0.1 µM.
For `Cc1nc2cc(C(=O)NCc3ccc(Cl)c(C(F)(F)F)c3)nn2c(-c2cc(F)c3c(c2C)CCCO3)c1[C@H](OC(C)(C)C)C(=O)O` [Example 120, (2S)-2-(tert-butoxy)-2-(2-((4-chloro-3-(trifluoromethyl)benzyl)carbamoyl)-7-(8-fluoro-5-methylchroman-6-yl)-5-methylpyrazolo[1,5-a]pyrimidin-6-yl)acetic acid], the EC50 was < 0.1 µM.
For `Cc1nc2cc(C(=O)NCc3ccc(Cl)c(Cl)c3)nn2c(-c2cc(F)c3c(c2C)CCCO3)c1[C@H](OC(C)(C)C)C(=O)O` [Example 109, (2S)-2-(tert-butoxy)-2-(2-((3,4-dichlorobenzyl)carbamoyl)-7-(8-fluoro-5-methylchroman-6-yl)-5-methylpyrazolo[1,5-a]pyrimidin-6-yl)acetic acid], the EC50 was < 0.1 µM.
With `Cc1nc2cc(C(=O)N3CCC(c4ccccc4)CC3)nn2c(-c2cc(F)c3c(c2C)CCCO3)c1[C@H](OC(C)(C)C)C(=O)O` [Example 78, (2S)-2-(tert-butoxy)-2-(7-(8-fluoro-5-methylchroman-6-yl)-5-methyl-2-(4-phenylpiperidine-1-carbonyl)pyrazolo[1,5-a]pyrimidin-6-yl)acetic acid] the EC50 was < 0.1 µM.
In the case of `Cc1nc2cc(C(=O)NCc3cccc(Cl)c3Cl)nn2c(-c2cc(F)c3c(c2C)CCCO3)c1[C@H](OC(C)(C)C)C(=O)O` [Example 117, (2S)-2-(tert-butoxy)-2-(2-((2,3-dichlorobenzyl)carbamoyl)-7-(8-fluoro-5-methylchroman-6-yl)-5-methylpyrazolo[1,5-a]pyrimidin-6-yl)acetic acid], the EC50 is reported as < 0.1 µM.
`Cc1nc2cc(C(=O)NCc3cccc(-c4ccccc4)c3)nn2c(-c2cc(F)c3c(c2C)CCCO3)c1[C@H](OC(C)(C)C)C(=O)O` [Example 69, (2S)-2-(2-(([1,1′-biphenyl]-3-ylmethyl)carbamoyl)-7-(8-fluoro-5-methylchroman-6-yl)-5-methylpyrazolo[1,5-a]pyrimidin-6-yl)-2-(tert-butoxy)acetic acid] was tested, and the EC50 was < 0.1 µM.
For `COc1cc(CNC(=O)c2cc3nc(C)c([C@H](OC(C)(C)C)C(=O)O)c(-c4cc(F)c5c(c4C)CCCO5)n3n2)ccc1F` [Example 35, (2S)-2-(tert-butoxy)-2-(2-((4-fluoro-3-methoxybenzyl)carbamoyl)-7-(8-fluoro-5-methylchroman-6-yl)-5-methylpyrazolo[1,5-a]pyrimidin-6-yl)acetic acid], the EC50 was < 0.1 µM.
With `Cc1nc2cc(C(=O)NS(=O)(=O)c3ccccc3)nn2c(-c2cc(F)c3c(c2C)CCCO3)c1[C@H](OC(C)(C)C)C(=O)O` [Example 13, (2S)-2-(tert-butoxy)-2-(7-(8-fluoro-5-methylchroman-6-yl)-5-methyl-2-((phenylsulfonyl)carbamoyl)pyrazolo[1,5-a]pyrimidin-6-yl)acetic acid] the EC50 was > 1 µM.
`Cc1ccc(CN(C)C(=O)c2cc3nc(C)c([C@H](OC(C)(C)C)C(=O)O)c(-c4cc(F)c5c(c4C)CCCO5)n3n2)cc1` [Example 32, (2S)-2-(tert-butoxy)-2-(7-(8-fluoro-5-methylchroman-6-yl)-5-methyl-2-(methyl(4-methylbenzyl)carbamoyl)pyrazolo[1,5-a]pyrimidin-6-yl)acetic acid] was tested, and the EC50 was < 0.1 µM.
`Cc1nc2cc(C(=O)NCCC(C)C)nn2c(-c2cc(F)c3c(c2C)CCCO3)c1[C@H](OC(C)(C)C)C(=O)O` [Example 49, (2S)-2-(tert-butoxy)-2-(7-(8-fluoro-5-methylchroman-6-yl)-2-(isopentylcarbamoyl)-5-methylpyrazolo[1,5-a]pyrimidin-6-yl)acetic acid] was tested, and the EC50 was < 0.1 µM.
`Cc1nc2cc(C(=O)NCc3ccco3)nn2c(-c2cc(F)c3c(c2C)CCCO3)c1[C@H](OC(C)(C)C)C(=O)O` [Example 38, (2S)-2-(tert-butoxy)-2-(7-(8-fluoro-5-methylchroman-6-yl)-2-((furan-2-ylmethyl)carbamoyl)-5-methylpyrazolo[1,5-a]pyrimidin-6-yl)acetic acid] gave an EC50 of 0.1 to 1 µM.
For `Cc1ccccc1CN(C)C(=O)c1cc2nc(C)c([C@H](OC(C)(C)C)C(=O)O)c(-c3cc(F)c4c(c3C)CCCO4)n2n1` [Example 19, (2S)-2-(tert-butoxy)-2-(7-(8-fluoro-5-methylchroman-6-yl)-5-methyl-2-(methyl(2-methylbenzyl)carbamoyl)pyrazolo[1,5-a]pyrimidin-6-yl)acetic acid], the EC50 was < 0.1 µM.
In the case of `Cc1nc2cc(C(=O)NCc3ccc4c(c3)OCO4)nn2c(-c2cc(F)c3c(c2C)CCCO3)c1[C@H](OC(C)(C)C)C(=O)O` [Example 34, (2S)-2-(2-((benzo[d][1,3]dioxol-5-ylmethyl)carbamoyl)-7-(8-fluoro-5-methylchroman-6-yl)-5-methylpyrazolo[1,5-a]pyrimidin-6-yl)-2-(tert-butoxy)acetic acid], the EC50 is reported as < 0.1 µM.
Compound `Cc1nc2cc(C(=O)NCc3ccc(F)cc3S(C)(=O)=O)nn2c(-c2cc(F)c3c(c2C)CCCO3)c1[C@H](OC(C)(C)C)C(=O)O` [Example 28, (2S)-2-(tert-butoxy)-2-(2-((4-fluoro-2-(methylsulfonyl)benzyl)carbamoyl)-7-(8-fluoro-5-methylchroman-6-yl)-5-methylpyrazolo[1,5-a]pyrimidin-6-yl)acetic acid] has an EC50 of 0.1 to 1 µM.
In the case of `CCCc1cc(CNC(=O)c2cc3nc(C)c([C@H](OC(C)(C)C)C(=O)O)c(-c4cc(F)c5c(c4C)CCCO5)n3n2)ccc1F` [Example 25, (2S)-2-(tert-butoxy)-2-(2-((4-fluoro-3-propylbenzyl)carbamoyl)-7-(8-fluoro-5-methylchroman-6-yl)-5-methylpyrazolo[1,5-a]pyrimidin-6-yl)acetic acid], the EC50 is reported as < 0.1 µM.
`Cc1nc2cc(C(=O)NCCC3CCOCC3)nn2c(-c2cc(F)c3c(c2C)CCCO3)c1[C@H](OC(C)(C)C)C(=O)O` [Example 129, (2S)-2-(tert-butoxy)-2-(7-(8-fluoro-5-methylchroman-6-yl)-5-methyl-2-((2-(tetrahydro-2H-pyran-4-yl)ethyl)carbamoyl)pyrazolo[1,5-a]pyrimidin-6-yl)acetic acid] showed an EC50 of 0.1 to 1 µM.
With `Cc1ccc(CNC(=O)c2cc3nc(C)c([C@H](OC(C)(C)C)C(=O)O)c(-c4cc(F)c5c(c4C)CCCO5)n3n2)cc1F` [Example 60, (2S)-2-(tert-butoxy)-2-(2-((3-fluoro-4-methylbenzyl)carbamoyl)-7-(8-fluoro-5-methylchroman-6-yl)-5-methylpyrazolo[1,5-a]pyrimidin-6-yl)acetic acid] the EC50 was < 0.1 µM.
With `Cc1nc2cc(C(=O)N3CCC(Cc4ccccc4)CC3)nn2c(-c2cc(F)c3c(c2C)CCCO3)c1[C@H](OC(C)(C)C)C(=O)O` [Example 105, (2S)-2-(2-(4-benzylpiperidine-1-carbonyl)-7-(8-fluoro-5-methylchroman-6-yl)-5-methylpyrazolo[1,5-a]pyrimidin-6-yl)-2-(tert-butoxy)acetic acid] the EC50 was < 0.1 µM.
`Cc1nc2cc(C(=O)NCC3CCOCC3)nn2c(-c2cc(F)c3c(c2C)CCCO3)c1[C@H](OC(C)(C)C)C(=O)O` [Example 101, (2S)-2-(tert-butoxy)-2-(7-(8-fluoro-5-methylchroman-6-yl)-5-methyl-2-(((tetrahydro-2H-pyran-4-yl)methyl)carbamoyl)pyrazolo[1,5-a]pyrimidin-6-yl)acetic acid] gave an EC50 of 0.1 to 1 µM.
`Cc1nc2cc(C(=O)NCCNc3ccccc3)nn2c(-c2cc(F)c3c(c2C)CCCO3)c1[C@H](OC(C)(C)C)C(=O)O` [Example 47, (2S)-2-(tert-butoxy)-2-(7-(8-fluoro-5-methylchroman-6-yl)-5-methyl-2-((2-(phenylamino)ethyl)carbamoyl)pyrazolo[1,5-a]pyrimidin-6-yl)acetic acid] was tested, and the EC50 was 0.1 to 1 µM.

Same assay, conditions: Human immunodeficiency virus 1, MT2, 120 h, read-out: EC50 μM
For `Cc1nc2cc(C(=O)NS(=O)(=O)c3ccccc3)nn2c(-c2cc(F)c3c(c2C)CCCO3)c1[C@H](OC(C)(C)C)C(=O)O` [Example 13, (2S)-2-(tert-butoxy)-2-(7-(8-fluoro-5-methylchroman-6-yl)-5-methyl-2-((phenylsulfonyl)carbamoyl)pyrazolo[1,5-a]pyrimidin-6-yl)acetic acid], the EC50 was 40 µM.
In the case of `Cc1nc2cc(C(=O)NCc3ccco3)nn2c(-c2cc(F)c3c(c2C)CCCO3)c1[C@H](OC(C)(C)C)C(=O)O` [Example 38, (2S)-2-(tert-butoxy)-2-(7-(8-fluoro-5-methylchroman-6-yl)-2-((furan-2-ylmethyl)carbamoyl)-5-methylpyrazolo[1,5-a]pyrimidin-6-yl)acetic acid], the EC50 is reported as 0.167 µM.
`Cc1nc2cc(C(=O)NCCNc3ccccc3)nn2c(-c2cc(F)c3c(c2C)CCCO3)c1[C@H](OC(C)(C)C)C(=O)O` [Example 47, (2S)-2-(tert-butoxy)-2-(7-(8-fluoro-5-methylchroman-6-yl)-5-methyl-2-((2-(phenylamino)ethyl)carbamoyl)pyrazolo[1,5-a]pyrimidin-6-yl)acetic acid] showed an EC50 of 0.281 µM.

— patent US8791108B2, “Inhibitors of human immunodeficiency virus replication” (priority 2011, dated 2014)
